Laboratory results published in patent US20230233144A1, “Method for Determining Medication Adherence and Taggants Therefo” (The Regents of the University of Colorado, A Body Corporate, priority 2021, published 2023).
Read-outs that look alike come from different tables or passages of the source.

Legend:
[1] = in vivo
Source text: Example 2: An assay for a tenofovir (a PrEP drug) anabolite, tenofovir-diphosphate in red blood cells, which may be collected in dried blood spots (DBS), is disclosed as an adherence assessment. […] This enables assessment of cumulative dosing, indicative of degrees or gradients of adherence, over the preceding 1-2 months for tenofovir-based PrEP. This is analogous to how hemoglobin A1C works for cumulative glucose exposure. […] FIG. 3 illustrates how taggant tenofovir diphosphate concentration in dried blood spots is used in clinical trials to correlate and interpret medication adherence based upon TFV-DP concentration in DBS.

[2] = Daily 5+ ATP to rats for six days, 5+ ATP/1+ ATP ratio in dried blood spots by mass spectrometry; conditions: rat, red blood cells in dried blood spots, 100 mcg, in vivo ATP pool
Source text: Once each day, blood spot samples were taken from each rat and dried.
The in vivo ATP pool is large, the half-life of ATP is relatively long, 3 days in rats, corresponding to about 10 days in humans.

[3] = ATP half-life corresponding value in humans; conditions: human, in vivo, corresponding to the rat value
Source text: The in vivo ATP pool is large, the half-life of ATP is relatively long, 3 days in rats, corresponding to about 10 days in humans. […] Given the long half-life of ATP, the measurement for gradients of adherence is analogous to hemoglobin A1C as a measure of gradients of glucose exposure over the preceding months.

half-life ([1]; human) [h] | accumulation from a single dose to steady-state [1] [fold] | time of build up in DBS until steady-state plateau [1] | half-life [2] [h] | half-life [3] [h] | SMILES
408 | 25 | approximately 60 days | – | – | CC(Cn1cnc2c(N)ncnc21)OCP(=O)(O)OP(=O)(O)OP(=O)(O)O (stereo in doubt) [TFV-DP, tenofovir-diphosphate]
– | – | – | 72 | ~240 | Nc1ncnc2c1ncn2[C@@H]1O[C@H](COP(=O)(O)OP(=O)(O)OP(=O)(O)O)[C@@H](O)[C@H]1O [ATP, adenosine triphosphate]
